Results on 26 compounds are retold here after ChEMBL document CHEMBL5584304, “Unlocking the Potential of Glutinol: Structural Diversification and Antifungal Activity against Phytopathogenic Fusarium Strains” (2024).

What all share (format): functional
Conditions in all cases: time 24-48 hrs

One assay deals with Fusarium solani. Put plainly: Antifungal activity against Fusarium solani measured after 24 to 48 hrs by turbidimetry.
Another assay relates to Fusarium graminearum. Put plainly: Antifungal activity against Fusarium graminearum measured after 24 to 48 hrs by turbidimetry.
The subject of a further assay is Fusarium tucumaniae. As to the kind of experiment: Antifungal activity against Fusarium tucumaniae measured after 24 to 48 hrs by turbidimetry.

For `CC1(C)CC[C@]2(C)CC[C@]3(C)[C@H]4CC=C5[C@@H](Cc6c([nH]c7ccccc67)C5(C)C)[C@]4(C)CC[C@@]3(C)[C@@H]2C1`, the MIC against Fusarium solani, in the assay with Fusarium graminearum and with Fusarium tucumaniae was over 50 µg/mL throughout.
As to `C=C(C)C1=CC[C@H]2[C@@](C)(CC[C@@]3(C)[C@@H]4CC(C)(C)CC[C@]4(C)CC[C@]23C)[C@@H]1CCC#N`, the figures for the MIC in the assay with Fusarium solani, against Fusarium graminearum and against Fusarium tucumaniae were 59.2 µM, over 50 µg/mL and 59.2 µM, respectively.
Consider `CC1(C)CC[C@]2(C)CC[C@]3(C)[C@H]4CC=C5[C@@H](CC(C=O)=C(O)C5(C)C)[C@]4(C)CC[C@@]3(C)[C@@H]2C1`, for which the MIC – broadly, the smallest concentration in the dilution series that meets the test's criterion for growth inhibition – against Fusarium solani amounted to 55.2 µM; against Fusarium graminearum, 110 µM; against Fusarium tucumaniae it was 110 µM.
`CC1(C)CC[C@]2(C)CC[C@]3(C)c4ccc5c(c4CC[C@@]3(C)[C@@H]2C1)C=CC(=O)C5(C)C`: the MIC was over 50 µg/mL against Fusarium solani, 123 µM with Fusarium graminearum and 123 µM with Fusarium tucumaniae.
As for `CC1(C)CC[C@]2(C)CC[C@]3(C)[C@H]4CC=C5[C@@H](Cc6cnn(-c7nc8ccccc8s7)c6C5(C)C)[C@]4(C)CC[C@@]3(C)[C@@H]2C1`, the values for the MIC against Fusarium solani, against Fusarium graminearum and in the assay on Fusarium tucumaniae were 43 µM, 85.9 µM and 85.9 µM, respectively.
As for `CC1(C)CC[C@]2(C)CC[C@]3(C)[C@@H](CC=O)[C@](C)([C@@H]4CC[C@H](O)C(C)(C)C4=O)CC[C@@]3(C)[C@@H]2C1`, the MIC was 109 µM against Fusarium solani, 54.5 µM in the assay with Fusarium graminearum and 109 µM against Fusarium tucumaniae.
With `CC1(C)CC[C@]2(C)CC[C@]3(C)[C@H]4CC=C5[C@@H](Cc6sc(N)nc6C5(C)C)[C@]4(C)CC[C@@]3(C)[C@@H]2C1`, the MIC in the assay on Fusarium solani is over 50 µg/mL; against Fusarium graminearum, over 50 µg/mL; in the assay on Fusarium tucumaniae, 107 µM.
`CC1(C)CC[C@]2(C)CC[C@]3(C)[C@H]4CC=C5C(=CCC(=O)C5(C)C)[C@]4(C)CC[C@@]3(C)[C@@H]2C1`: the values for the MIC against Fusarium solani, in the assay with Fusarium graminearum and against Fusarium tucumaniae were over 50 µg/mL, 118 µM and over 50 µg/mL, respectively.
In the case of `CC1(C)CC[C@]2(C)CC[C@]3(C)[C@H]4C=CC5=C(C=C(Br)C(=O)C5(C)C)[C@]4(C)CC[C@@]3(C)[C@@H]2C1`, the MIC against Fusarium solani was over 50 µg/mL; with Fusarium graminearum, over 50 µg/mL; against Fusarium tucumaniae, 100 µM.
As to `CC1(C)CC[C@]2(C)CC[C@]3(C)[C@H]4CC=C5[C@@H](Cc6cnoc6C5(C)C)[C@]4(C)CC[C@@]3(C)[C@@H]2C1`, the MIC in the assay with Fusarium solani is 55.8 µM; with Fusarium graminearum, over 50 µg/mL; in the assay on Fusarium tucumaniae, 55.8 µM.
Consider `CC1(C)CC[C@]2(C)CC[C@]3(C)[C@H]4CC=C5C(C)(C)C(=O)CC[C@@]5(O)[C@]4(C)CC[C@@]3(C)[C@@H]2C1`, for which the MIC in the assay with Fusarium solani was 56.7 µM; with Fusarium graminearum, over 50 µg/mL; against Fusarium tucumaniae, 113 µM.
Take `CC1(C)CC[C@]2(C)CC[C@]3(C)[C@H]4CC=C5[C@@H](CC(Br)(Br)C(=O)C5(C)C)[C@]4(C)CC[C@@]3(C)[C@@H]2C1`: the values for the MIC against Fusarium solani, in the assay with Fusarium graminearum and with Fusarium tucumaniae were over 50 µg/mL, over 50 µg/mL and 85.9 µM, respectively.
In the case of `CC1(C)CC[C@]2(C)CC[C@]3(C)c4ccc5c(c4CC[C@@]3(C)[C@@H]2C1)C=C(Br)C(=O)C5(C)C`, the MIC in the assay with Fusarium solani is over 50 µg/mL; against Fusarium graminearum it was 51.7 µM; with Fusarium tucumaniae it was 51.7 µM.
On to `CC1(C)CC[C@]2(C)CC[C@]3(C)[C@H]4CC=C5C(=CC(=O)C(=O)C5(C)C)[C@]4(C)CC[C@@]3(C)[C@@H]2C1`, for which the minimal inhibitory concentration (MIC) in the assay with Fusarium solani is 114 µM; against Fusarium graminearum, over 50 µg/mL; in the assay on Fusarium tucumaniae, over 50 µg/mL.
As to `CC1(C)CC[C@]2(C)CC[C@]3(C)[C@H]4C=CC5=C(C=CC(=O)C5(C)C)[C@]4(C)CC[C@@]3(C)[C@@H]2C1`, the figures for the MIC in the assay with Fusarium solani, against Fusarium graminearum and in the assay on Fusarium tucumaniae were over 50 µg/mL, over 50 µg/mL and 119 µM, respectively.
For `CC1(C)CC[C@]2(C)CC[C@]3(C)[C@H]4CC=C5C(=Cc6n[nH]c(=S)nc6C5(C)C)[C@]4(C)CC[C@@]3(C)[C@@H]2C1`, the MIC was 25.4 µM against Fusarium solani, 50.8 µM in the assay on Fusarium graminearum and 102 µM with Fusarium tucumaniae.
In the case of `CC1(C)CC[C@]2(C)CC[C@]3(C)[C@H]4CC=C5[C@@H](CC(Br)C(=O)C5(C)C)[C@]4(C)CC[C@@]3(C)[C@@H]2C1` (stereo partly drawn), the MIC against Fusarium solani, against Fusarium graminearum and in the assay on Fusarium tucumaniae was over 50 µg/mL in each case.
With `CC(=O)O[C@H]1CC[C@@H]([C@]2(C)CC[C@@]3(C)[C@@H]4CC(C)(C)CC[C@]4(C)CC[C@]3(C)[C@H]2CC=O)C(=O)C1(C)C`, the MIC in the assay with Fusarium solani turned out to be 49.9 µM; against Fusarium graminearum, 99.8 µM; with Fusarium tucumaniae, 49.9 µM.
With `CC1(C)CC[C@]2(C)CC[C@]3(C)[C@H]4CC=C5C(=CC6=NC(N)=N[C@]6(O)C5(C)C)[C@]4(C)CC[C@@]3(C)[C@@H]2C1`, the figures for the minimum inhibitory concentration (MIC) against Fusarium solani, in the assay on Fusarium graminearum and against Fusarium tucumaniae were over 50 µg/mL, over 50 µg/mL and 108 µM, respectively.
Turning to `Cc1cc2c(c(C)c1O)CC[C@H]1[C@@]2(C)CC[C@@]2(C)[C@@H]3CC(C)(C)CC[C@]3(C)CC[C@]12C`, the MIC against Fusarium solani is over 50 µg/mL; against Fusarium graminearum it was over 50 µg/mL; in the assay on Fusarium tucumaniae it was 118 µM.
As to `CC1(C)CC[C@]2(C)CC[C@]3(C)[C@H]4CC=C5C(=Cc6nc7ccccc7nc6C5(C)C)[C@]4(C)CC[C@@]3(C)[C@@H]2C1`, the minimal inhibitory concentration (MIC) was over 50 µg/mL against Fusarium solani, over 50 µg/mL against Fusarium graminearum and 98.2 µM with Fusarium tucumaniae.
As to `COC(=O)Nc1nc2ccccc2[nH]1` [CARBENDAZIM], the MIC against Fusarium solani turned out to be 4.09 µM; with Fusarium graminearum, 8.18 µM; in the assay with Fusarium tucumaniae it was 4.09 µM.
`N#Cc1c[nH]cc1-c1cccc2c1OC(F)(F)O2` [FLUDIOXONIL]: the MIC is 12.6 µM in the assay on Fusarium solani, 17.8 µM against Fusarium graminearum and 17.8 µM against Fusarium tucumaniae.
Consider `CC1(C)CC[C@]2(C)CC[C@]3(C)[C@H]4CC=C5[C@@H](CC[C@H](O)C5(C)C)[C@]4(C)CC[C@@]3(C)[C@@H]2C1` [GLUTINOL], for which the MIC with Fusarium solani is over 50 µg/mL; against Fusarium graminearum it was over 50 µg/mL; in the assay on Fusarium tucumaniae, 117 µM.
As to `CC1(C)CC[C@]2(C)CC[C@]3(C)[C@H]4CC=C5[C@@H](CCC(=O)C5(C)C)[C@]4(C)CC[C@@]3(C)[C@@H]2C1` [GLUTINONE], the MIC in the assay on Fusarium solani was over 50 µg/mL; against Fusarium graminearum, 118 µM; in the assay with Fusarium tucumaniae it was 118 µM.
`COC(=O)N(OC)c1ccccc1COc1ccn(-c2ccc(Cl)cc2)n1` [PYRACLOSTROBIN]: the MIC against Fusarium solani amounted to 1.42 µM; with Fusarium graminearum it was 1.01 µM; in the assay on Fusarium tucumaniae, 1.01 µM.
